From article PMC4556614 (PLoS ONE, 2015)

Legend:
OCT2 [1] = molecular target: T1, OCT2 (Homo sapiens, UniProt O15244); assay: Inhibition of OCT2-mediated [3H]MPP+ uptake in HEK-OCT2 cells
OCT2 [2] = molecular target: T1, OCT2; assay: in vitro; settings: for % Inhibition of OCT2-dependent MF uptake at 20 µM (mean ± SEM) / % Inhibition of OCT2-dependent MF uptake at 200 µM (mean ± SEM) / inhibition at 3 min, 20 µM / inhibition at 3 min, 200 µM / IC50: human
[3] = ref 16 (Regenthal et al.), cited from earlier work; for Cmax,u: Cmax of unbound drug in humans; for Cmax: maximum steady-state plasma concentration in humans
[4] = test drug 20 µM, MPP+ 50 μM, 3 min, net uptake HEK-OCT2 minus HEK-VC
[5] = test drug 200 µM, MPP+ 50 μM, 3 min, net uptake HEK-OCT2 minus HEK-VC
[6] = human, pH 7.3, probe [3H]MPP+, 50 µM

T1 sequence (O15244 whole entry): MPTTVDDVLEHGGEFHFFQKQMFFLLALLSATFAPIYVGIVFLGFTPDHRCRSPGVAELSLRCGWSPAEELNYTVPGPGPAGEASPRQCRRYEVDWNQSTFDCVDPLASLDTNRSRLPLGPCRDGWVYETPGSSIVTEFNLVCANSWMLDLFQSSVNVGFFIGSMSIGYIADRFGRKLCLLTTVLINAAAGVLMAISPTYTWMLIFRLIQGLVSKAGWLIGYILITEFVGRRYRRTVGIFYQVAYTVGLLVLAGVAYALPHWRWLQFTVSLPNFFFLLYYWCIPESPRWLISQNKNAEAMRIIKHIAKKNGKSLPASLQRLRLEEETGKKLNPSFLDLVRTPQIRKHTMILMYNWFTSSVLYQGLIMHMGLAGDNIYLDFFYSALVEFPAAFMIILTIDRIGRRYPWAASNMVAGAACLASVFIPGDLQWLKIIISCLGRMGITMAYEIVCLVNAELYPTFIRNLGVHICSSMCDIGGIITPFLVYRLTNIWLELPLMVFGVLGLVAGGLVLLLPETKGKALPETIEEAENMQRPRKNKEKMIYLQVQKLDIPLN

| Compound | % Inhibition of OCT2-dependent MPP+ uptake at 20 µM (mean ± SEM) (OCT2 [1]; [4]) [%] | % Inhibition of OCT2-dependent MPP+ uptake at 200 µM (mean ± SEM) (OCT2 [1]; [5]) [%] | % Inhibition of OCT2-dependent MF uptake at 20 µM (mean ± SEM) (OCT2 [2]; pH 7.3) | % Inhibition of OCT2-dependent MF uptake at 200 µM (mean ± SEM) (OCT2 [2]; pH 7.3) | also measured |
| --- | --- | --- | --- | --- | --- |
| Cc1cc2c(s1)Nc1ccccc1N=C2N1CCN(C)CC1 [Olanzapine] | 83.5 ± 9.4 | 109.7 ± 2.8 | -7.5 ± 5.7 | 74.9 ± 1.8 | % Inhibition of OCT2-dependent MPP+ uptake at 20 µM (mean ± SEM) (OCT2 [1]; test drug 20 µM, MPP+ 50 μM, 3 min, net uptake HEK-OCT2 minus HEK-VC, listed as olanzapine): most potent inhibitors |
| CCCc1nc(C(C)(C)O)c(C(=O)O)n1Cc1ccc(-c2ccccc2-c2nnn[nH]2)cc1 [Olmesartan] |  |  |  |  | inhibition at 3 min, 20 µM (OCT2 [1]; [6]): -23.8 ± 7.1%; inhibition at 3 min, 200 µM (OCT2 [1]; [6]): -21.9 ± 13.3%; inhibition at 3 min, 20 µM (OCT2 [2]; pH 7.3, probe [14C]metformin, 1000 µM, % Inhibition of OCT2-dependent MF uptake at 20 µM (mean ± SEM), test drug 20 µM, metformin 1000 μM, 3 min, net uptake HEK-OCT2 minus HEK-VC): -0.1 ± 10.9%; inhibition at 3 min, 200 µM (OCT2 [2]; pH 7.3, probe [14C]metformin, 1000 µM, % Inhibition of OCT2-dependent MF uptake at 200 µM (mean ± SEM), test drug 200 µM, metformin 1000 μM, 3 min, net uptake HEK-OCT2 minus HEK-VC): 21.1 ± 7.3% |
| OCCN1CCN(CCCN2c3ccccc3C=Cc3ccccc32)CC1 [Opipramol] | 14.0 ± 7.6 | 81.6 ± 3.9 |  | 99.5 ± 0.7 |  |
| O=C1Nc2ccc(Cl)cc2C(c2ccccc2)=NC1O (stereo not drawn) [Oxazepam] |  |  |  | 97.5 ± 0.5 | % Inhibition of OCT2-dependent MPP+ uptake at 20 µM (mean ± SEM) (OCT2 [1]; human, pH 7.3): 37.6 ± 4.7; % Inhibition of OCT2-dependent MPP+ uptake at 200 µM (mean ± SEM) (OCT2 [1]; human, pH 7.3): 44.6 ± 6.5 |
| Fc1ccc([C@@H]2CCNC[C@H]2COc2ccc3c(c2)OCO3)cc1 [Paroxetine] | 15.5 ± 3.8 | 87.2 ± 3.6 | 80.6 ± 3.1 | 99.6 ± 1.9 |  |
| CN1CCN(CCCN2c3ccccc3Sc3ccccc32)CC1 [Perazine] | 58.5 ± 2.8 | 65.9 ± 2.0 | 53.6 ± 3.6 | 92.0 ± 1.8 |  |
| NC(=O)C1(N2CCCCC2)CCN(CCCC(=O)c2ccc(F)cc2)CC1 [Pipamperone] | 12.0 ± 4.5 | 33.1 ± 3.4 | 33.9 ± 6.0 | 78.1 ± 2.2 |  |
| NC(=O)CN1CCCC1=O [Piracetam] | -9.5 ± 12.1 | -0.5 ± 10.0 | 3.4 ± 3.4 | 2.5 ± 1.7 |  |
| CC[C@H](C)C(=O)O[C@H]1C[C@H](O)C=C2C=C[C@H](C)[C@H](CC[C@@H](O)C[C@@H](O)CC(=O)O)[C@H]21 [Pravastatin] | -30.2 ± 5.5 | -15.0 ± 5.2 | -26.3 ± 11.1 | -11.1 ± 11.1 |  |
| C[C@]12C=CC(=O)C=C1CC[C@@H]1[C@@H]2[C@@H](O)C[C@@]2(C)[C@H]1CC[C@]2(O)C(=O)CO [Prednisolone] | 42.1 ± 4.4 | 68.6 ± 2.8 | 66.0 ± 2.5 | 91.5 ± 0.5 |  |
| CC(C)C[C@H](CN)CC(=O)O [Pregabalin] |  |  | -1.3 ± 9.0 | 27.2 ± 5.9 | % Inhibition of OCT2-dependent MPP+ uptake at 20 µM (mean ± SEM) (OCT2 [1]; human, pH 7.3): -29.6 ± 7.5; % Inhibition of OCT2-dependent MPP+ uptake at 200 µM (mean ± SEM) (OCT2 [1]; human, pH 7.3): -15.8 ± 5.2 |
| CC(CN1c2ccccc2Sc2ccccc21)N(C)C (stereo not drawn) [Promethazine] | 5.7 ± 3.8 | 76.0 ± 3.0 | 83.7 ± 3.3 | 100.7 ± 1.3 |  |
| CCOC(=O)[C@H](CCc1ccccc1)N[C@@H](C)C(=O)N1[C@H](C(=O)O)C[C@@H]2CCC[C@@H]21 [Ramipril] | 72.5 ± 7.4 | 83.6 ± 6.2 | 12.9 ± 4.1 | 35.4 ± 2.9 |  |
| CNC(=C[N+](=O)[O-])NCCSCc1ccc(CN(C)C)o1 [Ranitidine] | -7.9 ± 12.9 | 11.6 ± 3.4 | 65.2 ± 7.7 | 91.5 ± 3.8 |  |
| Cc1nc2n(c(=O)c1CCN1CCC(c3noc4cc(F)ccc34)CC1)CCCC2 [Risperidone] | 57.8 ± 5.2 | 78.4 ± 1.5 | 81.0 ± 4.4 | 98.3 ± 3.1 |  |
| CCN(C)C(=O)Oc1cccc([C@H](C)N(C)C)c1 [Rivastigmine] | 25.1 ± 9.1 | 59.4 ± 4.6 | 51.8 ± 4.0 | 91.4 ± 1.5 |  |
| CN[C@H]1CC[C@@H](c2ccc(Cl)c(Cl)c2)c2ccccc21 [Sertraline] | 43.6 ± 2.9 | 96.1 ± 1.7 | 88.4 ± 2.1 | 100.5 ± 0.7 | IC50 values, OCT2-mediated metformin transport (in words) (OCT2 [2]; potent inhibitors, confirmed previous findings [19]-[21]): low micromolar range |
| CCC(C)(C)C(=O)O[C@H]1C[C@@H](C)C=C2C=C[C@H](C)[C@H](CC[C@@H]3C[C@@H](O)CC(=O)O3)[C@H]21 [Simvastatin lactone] | 48.5 ± 9.0 | 53.8 ± 13.1 | -15.4 ± 5.5 | 57.6 ± 10.0 |  |
| CC(=O)S[C@@H]1CC2=CC(=O)CC[C@]2(C)[C@H]2CC[C@@]3(C)[C@@H](CC[C@@]34CCC(=O)O4)[C@H]12 [Spironolactone] | 33.5 ± 4.7 | 95.0 ± 0.5 |  | 98.4 ± 1.0 | Cmax,u / IC50 (OCT2 [2]): 0.02; IC50 (OCT2 [2]; pH 7.3): 1290 nM; Cmax,u [3]: 20 nM; Cmax [3]: 1200 nM |
| CCOc1ccccc1OCCN[C@H](C)Cc1ccc(OC)c(S(N)(=O)=O)c1 [Tamsulosin] | 14.9 ± 4.8 | 65.7 ± 2.9 |  | 107.0 ± 3.1 |  |
| Cn1c(=O)c2[nH]cnc2n(C)c1=O [Theophylline] | -12.9 ± 5.7 | -16.7 ± 6.8 | -21.5 ± 13.0 | -36.6 ± 10.9 |  |
| Cc1cccc(Nc2ccncc2S(=O)(=O)NC(=O)NC(C)C)c1 [Torasemide] | -11.4 ± 2.3 | -40.3 ± 5.0 | -33.2 ± 5.0 | -19.5 ± 0.8 |  |
| COc1cccc(C2(O)CCCCC2CN(C)C)c1 (stereo not drawn) [Tramadol] |  |  | 47.1 ± 9.5 | 103.7 ± 9.2 | % Inhibition of OCT2-dependent MPP+ uptake at 20 µM (mean ± SEM) (OCT2 [1]; human, pH 7.3): 5.9 ± 7.9; % Inhibition of OCT2-dependent MPP+ uptake at 200 µM (mean ± SEM) (OCT2 [1]; human, pH 7.3): 31.4 ± 1.4 |
| Nc1nc(N)c2nc(-c3ccccc3)c(N)nc2n1 [Triamterene] | 6.6 ± 11.2 | 17.5 ± 3.8 | 48.0 ± 5.1 | 92.0 ± 2.1 |  |
| CCCC(CCC)C(=O)O [Valproic acid] | -17.3 ± 9.5 | -29.0 ± 9.2 | 18.5 ± 7.6 | 27.7 ± 1.9 |  |
| CCCCC(=O)N(Cc1ccc(-c2ccccc2-c2nnn[nH]2)cc1)[C@H](C(=O)O)C(C)C [Valsartan] |  |  |  |  | inhibition at 3 min, 20 µM (OCT2 [1]; human, pH 7.3): -77.2 ± 6%; inhibition at 3 min, 200 µM (OCT2 [1]; human, pH 7.3): -82.1 ± 9.9%; inhibition at 3 min, 20 µM (OCT2 [2]; pH 7.3): -41.7 ± 1.8%; inhibition at 3 min, 200 µM (OCT2 [2]; pH 7.3): -12.9 ± 3.6% |
| COc1ccc(C(CN(C)C)C2(O)CCCCC2)cc1 (stereo not drawn) [Venlafaxine] | -43.3 ± 13.0 | -54.3 ± 13.1 | 17.6 ± 3.2 | 72.2 ± 2.5 |  |
| Cc1cccc(C)c1NC(=O)c1cc(S(N)(=O)=O)c(Cl)cc1O [Xipamide] | 10.5 ± 3.7 | 6.6 ± 9.3 | -22.3 ± 9.7 | 9.4 ± 9.2 |  |
| Cc1ccc(-c2nc3ccc(C)cn3c2CC(=O)N(C)C)cc1 [Zolpidem] |  |  |  | 99.1 ± 0.5 | % Inhibition of OCT2-dependent MPP+ uptake at 20 µM (mean ± SEM) (OCT2 [1]; human, pH 7.3): 36.5 ± 4.3; % Inhibition of OCT2-dependent MPP+ uptake at 200 µM (mean ± SEM) (OCT2 [1]; human, pH 7.3): 90.7 ± 8.2; IC50 (OCT2 [2]; pH 7.3): 150 nM; Cmax,u [3]: 50 nM; Cmax [3]: 650 nM |
